In PMC10648349, “Aromatic Diboronic Acids as Effective KPC/AmpC Inhibitors” (Molecules, 2023):
≈ marks a conversion by molar mass, not a printed value.

How the values were obtained:
[1] = tested on: C. parapsilosis ATCC 22019; assay: antifungal activity (disc-diffusion, MIC, MFC); type: cell-based, Candida parapsilosis; settings: Lodderomyces parapsilosis, ATCC22019; for zone of inhibition at 0.4 mg/disc: 0.4 mg per disc, 9 mm disc (fluconazole 0.025 mg, 6 mm disc), - no zone, read-out: Diameter of inhibition zone; for MIC: fluconazole by Etest
How it was run: (§1)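 Disc-diffusion, MIC, MBC (bacteria) and MFC (yeasts) were determined per EUCAST and CLSI recommendations. Diboronic acids were dissolved in DMSO and applied at 0.4 mg per disc for diffusion. References: nitrofurantoin (Gram-negative rods), linezolid (Gram-positive), fluconazole (fungi).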

[2] = tested on: C. guilliermondii IBA 155; assay: antifungal activity (disc-diffusion, MIC, MFC); type: cell-based, Candida guilliermondii; settings: Meyerozyma guilliermondii, IBA155; for zone of inhibition at 0.4 mg/disc: 0.4 mg per disc, 9 mm disc (fluconazole 0.025 mg, 6 mm disc), - no zone, read-out: Diameter of inhibition zone; for MIC: fluconazole by Etest
How it was run: as §1

[3] = tested on: K. pneumoniae ATCC BAA 1705 KPC(+); assay: screening test of direct antimicrobial activity (STDA), disc-diffusion; type: cell-based; settings: Klebsiella pneumoniae, BAA1705, - no zone, read-out: Diameter of inhibition zone around disc with tested agent; for zone of inhibition at 300 µg/disc: 0.3 mg per disc
Description: (§2) Prior to combination disc tests, screening tests of direct antimicrobial activity (STDA) of the tested agent against β-lactamase-producing strains were performed by the disc-diffusion method. Discs with 0.3 mg, 0.1 mg, and 0.03 mg of each agent were examined. The highest amount of an agent that caused no effect on bacterial growth was used in further experiments.

[4] = tested on: K. pneumoniae ATCC 700603 ESBL(+); assay: as above; type: cell-based; settings: Klebsiella pneumoniae, ATCC700603, - no zone, read-out: Diameter of inhibition zone around disc with tested agent; for zone of inhibition at 300 µg/disc: 0.3 mg per disc
Description: as §2

[5] = tested on: P. aeruginosa MUW 700 AmpC(+); assay: as above; type: cell-based; settings: Pseudomonas aeruginosa, - no zone, read-out: Diameter of inhibition zone around disc with tested agent; for zone of inhibition at 300 µg/disc: 0.3 mg per disc
Description: as §2

E. coli 77 CMY-2(+) = assay: as above; type: cell-based; settings: Escherichia coli, - no zone, read-out: Diameter of inhibition zone around disc with tested agent; for zone of inhibition at 300 µg/disc: 0.3 mg per disc
Description: as §2

[6] = tested on: Gram-negative rods (except P. aeruginosa); assay: direct antimicrobial activity, MIC; type: cell-based
Description: Direct antimicrobial activity against Gram-negative and Gram-positive bacterial strains, as well as against yeast, was examined as previously described by the disc-diffusion test, the MIC determination assay, the MBC (for bacteria), and the MFC (for yeasts) determination tests. All the above-mentioned tests were performed according to EUCAST [71, 72] and CLSI [73, 74, 75, 76, 77] recommendations. The following reference agents were used: nitrofurantoin (for Gram-negative rods), linezolid (for Gram-positive bacteria), and fluconazole (in the case of fungi). The new aromatic diboronic acids were dissolved in DMSO (Sigma, St. Louis, MO, USA). In the disc-diffusion test, the concentration of new agents was 0.4 mg per disc.

S. cerevisiae ATCC 9763 = assay: antifungal activity (disc-diffusion, MIC, MFC); type: cell-based; settings: Saccharomyces cerevisiae, ATCC9763; for zone of inhibition at 0.4 mg/disc: 0.4 mg per disc, 9 mm disc (fluconazole 0.025 mg, 6 mm disc), - no zone, read-out: Diameter of inhibition zone; for MIC: fluconazole by Etest
How it was run: as §1

C. tropicalis ATCC 750 = assay: antifungal activity (disc-diffusion, MIC, MFC); type: cell-based; settings: Candida tropicalis, ATCC750; for zone of inhibition at 0.4 mg/disc: 0.4 mg per disc, 9 mm disc (fluconazole 0.025 mg, 6 mm disc), - no zone, read-out: Diameter of inhibition zone; for MIC: fluconazole by Etest
How it was run: as §1

C. albicans ATCC 90028 = assay: antifungal activity (disc-diffusion, MIC, MFC); type: cell-based; settings: Candida albicans, ATCC90028; for zone of inhibition at 0.4 mg/disc: 0.4 mg per disc, 9 mm disc (fluconazole 0.025 mg, 6 mm disc), - no zone, read-out: Diameter of inhibition zone; for MIC: fluconazole by Etest
How it was run: as §1

C. tropicalis IBA 171 = assay: antifungal activity (disc-diffusion, MIC, MFC); type: cell-based; settings: Candida tropicalis, IBA171; for zone of inhibition at 0.4 mg/disc: 0.4 mg per disc, 9 mm disc (fluconazole 0.025 mg, 6 mm disc), - no zone, read-out: Diameter of inhibition zone; for MIC: fluconazole by Etest
How it was run: as §1

[7] = tested on: K. pneumoniae 83 KPC-3-positive, CTX-M-3-positive; assay: checkerboard microdilution, antibiotic plus tested agent; type: cell-based, Klebsiella pneumoniae
How it was run: (§3)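 Read-out is the antibiotic MIC with agent present, plus FICI = combined/alone MIC ratios summed for both partners. Meropenem pairs served for carbapenemase strains and ceftazidime pairs for the AmpC strain. Agent or PBA was tested at 4–16 mg/L.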

[8] = tested on: K. pneumoniae 81 KPC-3-positive; assay: as above; type: cell-based, Klebsiella pneumoniae
How it was run: as §3

[9] = tested on: K. pneumoniae ATCC BAA-1705 KPC-2-positive; assay: as above; type: cell-based, Klebsiella pneumoniae
How it was run: as §3

[10] = tested on: E. coli 76 KPC-2-positive; assay: as above; type: cell-based, Escherichia coli
How it was run: as §3

[11] = tested on: E. coli 77 CMY-2-positive; assay: combination disc test CDT-AmpC; type: cell-based; settings: Escherichia coli, read-out: Diameter of inhibition zone, CAZ-30 disc with agent

Structure (SMILES): OB(O)c1cc(F)ccc1F [7a, 2,5-difluorophenylboronic acid]
- zone of inhibition at 0.4 mg/disc [1]: 21 mm
- MIC [1]: 25 µg/mL (≈ 158 µM)
- zone of inhibition at 0.4 mg/disc [2]: 33 mm
- MIC [2]: 25 µg/mL (≈ 158 µM)
- zone of inhibition at 100 µg/disc ([3]; 0.1 mg per disc): 12 mm
- zone of inhibition at 300 µg/disc [3]: 17 mm
- zone of inhibition at 100 µg/disc ([4]; 0.1 mg per disc): 18 mm
- zone of inhibition at 300 µg/disc [4]: 18 mm
- zone of inhibition at 100 µg/disc ([5]; 0.1 mg per disc): 11 mm
- zone of inhibition at 300 µg/disc [5]: 12 mm
- zone of inhibition at 100 µg/disc (E. coli 77 CMY-2(+); 0.1 mg per disc): 13 mm
- zone of inhibition at 300 µg/disc (E. coli 77 CMY-2(+)): 18 mm
- MIC [6]: 50 to 400 µg/mL (≈ 317 to 2530 µM)
- zone of inhibition at 0.4 mg/disc (S. cerevisiae ATCC 9763): 18 mm
- MIC (S. cerevisiae ATCC 9763): 50 µg/mL (≈ 317 µM)
- zone of inhibition at 0.4 mg/disc (C. tropicalis ATCC 750): 21 mm
- MIC (C. tropicalis ATCC 750): 50 µg/mL (≈ 317 µM)
- zone of inhibition at 0.4 mg/disc (C. albicans ATCC 90028): 29 mm
- MIC (C. albicans ATCC 90028): 25 µg/mL (≈ 158 µM)
- zone of inhibition at 0.4 mg/disc (C. tropicalis IBA 171): 25 mm
- MIC (C. tropicalis IBA 171): 25 µg/mL (≈ 158 µM)
- Average FICI with ERT [7]: 0.51
- Average FICI with IMI [7]: 0.30
- Average FICI with MEM [7]: 0.47
- The lowest FICI with ERT [7]: 0.41
- The lowest FICI with IMI [7]: 0.29
- The lowest FICI with MEM [7]: 0.29
- Average FICI with ERT [8]: 0.46
- Average FICI with IMI [8]: 0.21
- Average FICI with MEM [8]: 0.23
- The lowest FICI with ERT [8]: 0.33
- The lowest FICI with IMI [8]: 0.17
- The lowest FICI with MEM [8]: 0.14
- Average FICI with ERT [9]: 0.76
- Average FICI with IMI [9]: 0.43
- Average FICI with MEM [9]: 0.51
- The lowest FICI with ERT [9]: 0.58
- The lowest FICI with IMI [9]: 0.33
- The lowest FICI with MEM [9]: 0.41
- Average FICI with ERT [10]: 0.51
- Average FICI with IMI [10]: 0.30
- Average FICI with MEM [10]: 0.51
- The lowest FICI with ERT [10]: 0.41
- The lowest FICI with IMI [10]: 0.29
- The lowest FICI with MEM [10]: 0.41
- zone of inhibition at 30 µg/disc ([11]; agent 0.03 mg per disc): 19 mm

Structure (SMILES): OB(O)c1cc(Br)c(B(O)O)cc1Br [1i]
- zone of inhibition at 0.4 mg/disc [1]: 24 mm
- MIC [1]: 50 µg/mL (≈ 155 µM)
- zone of inhibition at 0.4 mg/disc [2]: 34 mm
- MIC [2]: 25 µg/mL (≈ 77.3 µM)
- zone of inhibition at 300 µg/disc [3]: 15 mm
- zone of inhibition at 300 µg/disc [4]: 13 mm
- zone of inhibition at 300 µg/disc [5]: 12 mm
- zone of inhibition at 300 µg/disc (E. coli 77 CMY-2(+)): 16 mm
- MIC [6]: 50 to 400 µg/mL (≈ 155 to 1240 µM)
- zone of inhibition at 0.4 mg/disc (S. cerevisiae ATCC 9763): 24 mm
- MIC (S. cerevisiae ATCC 9763): 50 µg/mL (≈ 155 µM)
- zone of inhibition at 0.4 mg/disc (C. tropicalis ATCC 750): 25 mm
- MIC (C. tropicalis ATCC 750): 50 µg/mL (≈ 155 µM)
- zone of inhibition at 0.4 mg/disc (C. albicans ATCC 90028): 31 mm
- MIC (C. albicans ATCC 90028): 12.5 µg/mL (≈ 38.6 µM)
- zone of inhibition at 0.4 mg/disc (C. tropicalis IBA 171): 29 mm
- MIC (C. tropicalis IBA 171): 25 µg/mL (≈ 77.3 µM)
- zone of inhibition at 100 µg/disc ([11]; agent 0.1 mg per disc): 16 mm
